Measured values published in PubChem BioAssay (NCI).
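48-hour exposure; five concentrations; linearly interpolated endpoints. TGI denotes the concentration required for complete inhibition of growth.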

Legend:
Experiment in all cases: NCI anticancer screen, dose series, 48 h
OVCAR-5 ovarian = tested on: OVCAR-5 ovarian
SF-295 CNS = tested on: SF-295 CNS
OVCAR-8 ovarian = tested on: OVCAR-8 ovarian
UO-31 renal = tested on: UO-31 renal
UACC-62 melanoma = tested on: UACC-62 melanoma
SF-539 CNS = tested on: SF-539 CNS
EKVX NSCLC = tested on: EKVX NSCLC
OVCAR-3 ovarian = tested on: OVCAR-3 ovarian
RPMI-8226 leukemia = tested on: RPMI-8226 leukemia
MDA-MB-231 breast = tested on: MDA-MB-231 breast
RXF 393 renal = tested on: RXF 393 renal
MDA-N = tested on: MDA-N
NCI-H460 lung = tested on: NCI-H460 lung
DU-145 prostate = tested on: DU-145 prostate
BT-549 breast = tested on: BT-549 breast
NCI-H226 lung = tested on: NCI-H226 lung
NCI/ADR-RES ovarian = tested on: NCI/ADR-RES ovarian
HOP-62 NSCLC = tested on: HOP-62 NSCLC
K-562 leukemia = tested on: K-562 leukemia
U251 CNS = tested on: U251 CNS
TK-10 renal = tested on: TK-10 renal
SF-268 CNS = tested on: SF-268 CNS
PC-3 prostate = tested on: PC-3 prostate
SK-MEL-5 melanoma = tested on: SK-MEL-5 melanoma
NCI-H23 lung = tested on: NCI-H23 lung
COLO 205 colon = tested on: COLO 205 colon
MOLT-4 leukemia = tested on: MOLT-4 leukemia
KM12 colon = tested on: KM12 colon
ACHN renal = tested on: ACHN renal
UACC-257 melanoma = tested on: UACC-257 melanoma
A549 NSCLC = tested on: A549 NSCLC
HCT-15 colon = tested on: HCT-15 colon
MALME-3M melanoma = tested on: MALME-3M melanoma
CCRF-CEM leukemia = tested on: CCRF-CEM leukemia
LOX IMVI melanoma = tested on: LOX IMVI melanoma
MDA-MB-435 = tested on: MDA-MB-435
CAKI-1 renal = tested on: CAKI-1 renal
MCF7 breast = tested on: MCF7 breast
SK-MEL-28 melanoma = tested on: SK-MEL-28 melanoma
OVCAR-4 ovarian = tested on: OVCAR-4 ovarian
SN12C renal = tested on: SN12C renal
M14 melanoma = tested on: M14 melanoma
HCC-2998 colon = tested on: HCC-2998 colon
SK-MEL-2 melanoma = tested on: SK-MEL-2 melanoma
SK-OV-3 ovarian = tested on: SK-OV-3 ovarian
NCI-H522 lung = tested on: NCI-H522 lung
SNB-19 CNS = tested on: SNB-19 CNS
A498 renal = tested on: A498 renal
IGROV1 ovarian = tested on: IGROV1 ovarian
SNB-75 CNS = tested on: SNB-75 CNS
T-47D breast = tested on: T-47D breast
SR leukemia = tested on: SR leukemia
HCT-116 colon = tested on: HCT-116 colon
HS 578T breast = tested on: HS 578T breast
786-0 renal = tested on: 786-0 renal
SW-620 colon = tested on: SW-620 colon
HT29 colon = tested on: HT29 colon
HOP-92 NSCLC = tested on: HOP-92 NSCLC
HL-60(TB) leukemia = tested on: HL-60(TB) leukemia

`Cc1nc(Cl)c(CBr)c(Cl)n1` was tested, and the TGI (OVCAR-5 ovarian) was 3.84 µM, the TGI (SF-295 CNS) was 22.9 µM and the TGI (OVCAR-8 ovarian) was 6.47 µM. For the same compound, the TGI (UO-31 renal) was 3.2 µM, the TGI (UACC-62 melanoma) was 3.46 µM and the TGI (SF-539 CNS) was 3.72 µM. It also gave a TGI (EKVX NSCLC) of 11.8 µM, a TGI (OVCAR-3 ovarian) of 1.97 µM and a TGI (RPMI-8226 leukemia) of 4.47 µM. The TGI (MDA-MB-231 breast) was 3.67 µM, the TGI (RXF 393 renal) was 5.03 µM and the TGI (MDA-N) was 2.97 µM. It also gave a TGI (NCI-H460 lung) of 8.38 µM, a TGI (DU-145 prostate) of 8.33 µM and a TGI (BT-549 breast) of 0.747 µM. The TGI (NCI-H226 lung) was 6.73 µM, the TGI (NCI/ADR-RES ovarian) was 7.8 µM and the TGI (HOP-62 NSCLC) was 4.03 µM. The TGI (K-562 leukemia) was 0.887 µM, the TGI (U251 CNS) was 4.1 µM and the TGI (TK-10 renal) was 3.68 µM. It also gave a TGI (SF-268 CNS) of 8.85 µM, a TGI (PC-3 prostate) of 3.13 µM and a TGI (SK-MEL-5 melanoma) of 2.88 µM. The TGI (NCI-H23 lung) was 3.69 µM, the TGI (COLO 205 colon) was 3.15 µM and the TGI (MOLT-4 leukemia) was 1.09 µM. For the same compound, the TGI (KM12 colon) was 2.72 µM, the TGI (ACHN renal) was 3.15 µM and the TGI (UACC-257 melanoma) was 3.37 µM. It also gave a TGI (A549 NSCLC) of 12.4 µM, a TGI (HCT-15 colon) of 4.37 µM and a TGI (MALME-3M melanoma) of 2.92 µM. For the same compound, the TGI (CCRF-CEM leukemia) was 0.772 µM, the TGI (LOX IMVI melanoma) was 1.77 µM and the TGI (MDA-MB-435) was 3.3 µM. For the same compound, the TGI (CAKI-1 renal) was 4.01 µM, the TGI (MCF7 breast) was 2.17 µM and the TGI (SK-MEL-28 melanoma) was 3.07 µM. It also gave a TGI (OVCAR-4 ovarian) of 3.56 µM, a TGI (SN12C renal) of 3.75 µM and a TGI (M14 melanoma) of 0.949 µM. For the same compound, the TGI (HCC-2998 colon) was 11.5 µM, the TGI (SK-MEL-2 melanoma) was 4.68 µM and the TGI (SK-OV-3 ovarian) was 12.7 µM. The TGI (NCI-H522 lung) was 1.15 µM, the TGI (SNB-19 CNS) was 11.2 µM and the TGI (A498 renal) was 24.7 µM. For the same compound, the TGI (IGROV1 ovarian) was 3.39 µM, the TGI (SNB-75 CNS) was 2.26 µM and the TGI (T-47D breast) was 4.5 µM. For the same compound, the TGI (SR leukemia) was 0.554 µM, the TGI (HCT-116 colon) was 1.19 µM and the TGI (HS 578T breast) was 5.94 µM. For the same compound, the TGI (786-0 renal) was 1 µM.
`O=C1CC(c2ccc([N+](=O)[O-])cc2)C2(C(=O)NC(=S)NC2=O)C(c2ccc([N+](=O)[O-])cc2)C1` (stereo unspecified) was tested, and the TGI (OVCAR-5 ovarian) was 87.4 µM, the TGI (SW-620 colon) was > 100 µM and the TGI (SF-295 CNS) was 60.1 µM. For the same compound, the TGI (OVCAR-8 ovarian) was 45.1 µM, the TGI (UO-31 renal) was 63.1 µM and the TGI (UACC-62 melanoma) was 32.6 µM. For the same compound, the TGI (SF-539 CNS) was > 100 µM, the TGI (EKVX NSCLC) was 82.9 µM and the TGI (OVCAR-3 ovarian) was 76.1 µM. The TGI (HT29 colon) was > 100 µM, the TGI (RPMI-8226 leukemia) was > 100 µM and the TGI (MDA-MB-231 breast) was 37.3 µM. The TGI (MDA-N) was > 100 µM, the TGI (NCI-H460 lung) was 42.2 µM and the TGI (DU-145 prostate) was 83.3 µM. The TGI (BT-549 breast) was 34.1 µM, the TGI (NCI-H226 lung) was 36.9 µM and the TGI (NCI/ADR-RES ovarian) was > 100 µM. For the same compound, the TGI (HOP-62 NSCLC) was 56 µM, the TGI (K-562 leukemia) was > 100 µM and the TGI (U251 CNS) was 37 µM. For the same compound, the TGI (TK-10 renal) was 46.7 µM, the TGI (SF-268 CNS) was 45.6 µM and the TGI (PC-3 prostate) was > 100 µM. The TGI (SK-MEL-5 melanoma) was 99.1 µM, the TGI (NCI-H23 lung) was 64.1 µM and the TGI (COLO 205 colon) was > 100 µM. The TGI (MOLT-4 leukemia) was > 100 µM, the TGI (KM12 colon) was 36.3 µM and the TGI (ACHN renal) was 40.4 µM. The TGI (UACC-257 melanoma) was 40.9 µM, the TGI (A549 NSCLC) was 50.4 µM and the TGI (HCT-15 colon) was 58 µM. The TGI (MALME-3M melanoma) was 32.2 µM, the TGI (CCRF-CEM leukemia) was > 100 µM and the TGI (LOX IMVI melanoma) was 39.4 µM. The TGI (MDA-MB-435) was 40.4 µM, the TGI (MCF7 breast) was 43.8 µM and the TGI (SK-MEL-28 melanoma) was > 100 µM. For the same compound, the TGI (OVCAR-4 ovarian) was > 100 µM, the TGI (SN12C renal) was 53.4 µM and the TGI (M14 melanoma) was 45.7 µM. For the same compound, the TGI (HCC-2998 colon) was 49.8 µM, the TGI (SK-OV-3 ovarian) was > 100 µM and the TGI (NCI-H522 lung) was 36.4 µM. The TGI (SNB-19 CNS) was 43.5 µM, the TGI (A498 renal) was 85 µM and the TGI (HOP-92 NSCLC) was > 100 µM. The TGI (IGROV1 ovarian) was 45.2 µM, the TGI (SNB-75 CNS) was > 100 µM and the TGI (T-47D breast) was 96.3 µM. The TGI (SR leukemia) was > 100 µM, the TGI (HCT-116 colon) was 32.4 µM and the TGI (HS 578T breast) was 88.2 µM. For the same compound, the TGI (786-0 renal) was 87.7 µM and the TGI (HL-60(TB) leukemia) was > 100 µM.
